Data reported in patent US20100272837A1, “TRADITIONAL CHINESE MEDICINAL COMPOSITIONS FOR TREATING DEPRESSION , FORMULATION THEREOF, METHOD FOR PREPARING THE SAME THEREOF” (HEBEI YILING MEDICINE RESEARCH INSTITUTE CO. LTD., priority 2006, published 2010).
Where a name gives a salt, the structure may show the parent alone.

Key:
Assay type in all cases: in vivo, ICR mice
normal mice [1] = assay: Analgetic effects on normal mice (hot plate method); details: 0.33 g/kg body weight, gavage 3 days; hot plate 56±0.5
Procedure: ICR female mice having a body weight of 18-22 g were stochastically divided into six groups according to the body weight. Before test, the temperature of the aqueous thermostat was controlled at 56±0.5[…]. One mouse was placed on the hot plate each time, and the time of licking postpedes was defined as the pain threshold of said mouse. […] The normal pain thresholds were measured again. The average value of two normal pain thresholds was used as the pain threshold of the mouse before administration. […] There were 22 mice in the normal control group, and there were 11 mice in each of other groups.

mice given acetic acid = assay: Stretching caused by intraperitoneal acetic acid (stretching method); details: 0.33 g/kg body weight, gavage 3 days; 0.6% glacial acetic acid ip; during 15 minutes
From the text: Method: ICR mice having a body weight of 18-22 g, half male and half female, were randomly divided into five groups according to the body weight, including the group of 5 g/kg body weight capsules of the present invention, the group of 2.5 g/kg body weight capsules of the present invention, the group of 1.25 g/kg body weight capsules of the present invention, the aspirin group (0.33 g/kg body weigh), and the normal control group (administered with isovolumetric normal saline). There were 19 mice in the normal control group, and there were 10-11 mice in each of other groups. The animals in the groups of administration with a drug were consecutively administered for 3 days by gavage. Except the normal control group, each mouse in other groups was administered by intraperitoneal injection with 0.1 ml/10 g body weight 0.6% glacial acetic acid at 1 h after the final administration. Then the times of stretching caused by glacial acetic acid during 15 minutes after injection were recorded.

[2] = system: mice given sodium pentobarbital; assay: Rate of falling asleep caused by intraperitoneal sodium pentobarbital; details: 0.33 g/kg body weight, gavage 7 days; sodium pentobarbital 35 mg/kg ip; 11 animals
Procedure: III. […] Method: ICR mice having a body weight of 18-22 g, half male and half female, were randomly divided into five groups according to the body weight (see Table 14 for details). The animals in the groups of administration with a drug were consecutively administered for 7 days by gavage. Mice were weighed before the last administration, and administered by intraperitoneal injection with 35 mg/kg body weight sodium pentobarbital at 1 h after the last administration. The number of animals falling asleep was recorded.

[3] = system: mice of reserpine depression model; assay: Eyelids closing (ptosis) caused by reserpine; details: for Number of animals which close the eyelids at 1 h after the administration, ± (semi-open eyelids) / Number of animals which close the eyelids at 1 h after the administration, − (open eyelids) / Number of animals which close the eyelids at 1 h after the administration, □ (close eyelids) / Number of animals which close the eyelids at 2 h after the administration, ± (semi-open eyelids) / Number of animals which close the eyelids at 2 h after the administration, − (open eyelids) / Number of animals which close the eyelids at 2 h after the administration, □ (close eyelids) / Number of animals which close the eyelids at 6 h after the administration, ± (semi-open eyelids) / Number of animals which close the eyelids at 6 h after the administration, − (open eyelids) / Number of animals which close the eyelids at 6 h after the administration, □ (close eyelids): gavage 22 days, reserpine 2 mg/kg ip, 15 animals; for effect on reserpine-induced ptosis (in words): P<0.01
Procedure: (§1) Method: ICR male mice (SPF-grade, having a body weight of 17-20 g) were stochastically divided into seven groups according to the body weight, and the administration dosages can be found in Table 1. The animals in the groups of administration with a drug were administered by gavage for 22 consecutive days. The normal control group and the reserpine control group were administered by gavage with isovolumetric distilled water (0.2 ml/10 g body weight). 2 mg/kg body weight of reserpine was administered by intraperitoneal injection on the 22nd day. After 1 h, 2 h and 6 h of injection of reserpine, animals were placed on a bracket and under observation for 15 s to record the number of animals that closed the eyelids (wherein “−” represents open eyelids; “±” represents semi-open eyelids; and “+” represents close eyelids). […] At 2 h, 4 h, and 6 h after the administration of reserpine, animals were placed at the center of a piece of circular white paper with a diameter of 7.5 cm and under observation for 15 s to record the number of animals that still remained within the circle in 15 s.

[4] = system: mice of reserpine depression model; assay: “Excircle” behaviour (akinesia) of mice treated with reserpine; details: for Number of animals that have excircle behaviors at 2 h, Excircle (+) / Number of animals that have excircle behaviors at 2 h, Within circle (□) / Number of animals that have excircle behaviors at 4 h, Excircle (+) / Number of animals that have excircle behaviors at 4 h, Within circle (□) / Number of animals that have excircle behaviors at 6 h, Excircle (+) / Number of animals that have excircle behaviors at 6 h, Within circle (□): gavage 22 days, reserpine 2 mg/kg ip, 15 animals; for effect on “excircle” rate of reserpine mice (in words): P<0.05 or P<0.01
Procedure: as §1

[5] = system: mice of reserpine depression model; assay: Body temperature of mice treated with reserpine; details: for Body temperature, 6 h after making models: rectal temperature; for effect on fall in body temperature caused by reserpine (in words): P<0.01
Procedure: Method: ICR male mice (SPF-grade, having a body weight of 18-22 g) were stochastically divided into seven groups according to the body weight, and the dosages administrated are shown in Table 7. The animals in the groups of administration with a drug were administered for 22 consecutive days, and the basal body temperature (rectal temperature) of the animals was measured before administration on the 22nd day. […] The difference values of body temperature before and after administration and the difference values of their own body temperatures were calculated so as to conduct the statistical comparison by single factor analysis of variance (H. G Vogel & W. H. Vogel, Drug Discovery and Evaluation […]Guidance for Pharmacological Assays, translated by D U Guanhua et al, [M] Beijing: Science Press, 2001.409,412). The results can be found in Tables 7 and 8.

[6] = system: mice of reserpine depression model; assay: NA, DA and 5-HT in the brain tissue of reserpine mice (fluorophotometry); details: for 5-HT in the brain tissue of reserpine mice / DA in the brain tissue of reserpine mice / NA in the brain tissue of reserpine mice: gavage 25 days, reserpine 1 mg/kg ip
Procedure: The animals in the groups of administration with a drug were administered by gavage for 25 consecutive days. The normal control group and reserpine control group were administered with isovolumetric distilled water. On the 23rd day of the test, 1 mg/kg body weight of reserpine was ip administered for each group except the normal control group, and each group receiving reserpine was administered once more. At 1 hour after the last administration of reserpine, the heads of mice were cut off and the brain tissues were taken out, frozen with dry ice and preserved at −20□. The content of noradrenaline (NA), dopamine (DA) and 5-hydroxytryptamine (5-HT) in the cerebellar tissue homogenate was measured respectively by means of fluorophotometry.
(§2) At the end of the test, the heads of mice were rapidly cut off and the brain tissues were immediately taken out, promptly frozen with dry ice and moved into a refrigerator having a temperature of −20□. The tissue was defreezed before homogenization. The cerebellum, medulla oblongata and olfactory bulb were removed, and then 300 mg brain tissue was weighed with a analytical balance. Then 10 times amount by volume of acidic n-butanol (prepared by saturating 100 ml re-steamed n-butanol with NaCl, and mixing with 0.85 ml strong hydrochloric acid) were added into the brain tissue for homogenization.
(§3) The brain tissue homogenate was centrifugated (2,000 rpm) for 5 min. Then 2.5 ml supernatant was taken out and placed in centrifuge tube with a plug containing 1 ml 0.1N HC1 and 5 ml n-heptane. The centrifuge tube was placed on the KS vibrator, oscillated for 5 min and centrifugated (2,500 rpm) for 5 min. 6 to ml upper organic phase was placed into the tube having a plug and containing 0.6 ml 0.033 M NaHCO3 so as to extract 5-HIAA. Then 0.5 ml and 0.4 ml were respectively taken out from the lower aqueous phase, wherein the former was used to measure NA and DA, and the latter was used to measure 5-HT.
(§4) Internal standard tube treatment: 9 ml of the acidic n-butanol homogenate was averagely divided into 3 tubes, to two of them, 40 μl mixed standard solution (respectively containing 5 μg/ml standard substances of NA, DA and 5-HT) was added.

normal mice [7] = assay: NA, DA and 5-HT in the brain tissue of normal mice (fluorophotometry); details: for 5-HT in the brain tissue of normal mice / DA in the brain tissue of normal mice / NA in the brain tissue of normal mice: gavage 25 days, 80 min after final administration; for effect on 5-HT in brain tissue of normal mice (in words) / effect on NA and DA in brain tissue of normal mice (in words): positive control, P<0.01
Procedure: Method: ICR male mice; and the groups and administration doses can be found in Table 10. The animals in the groups of administration with a drug were administered by gavage for 25 consecutive days. At 80 min after the final administration, the heads of mice were cut off and the brain tissues were taken out, frozen with dry ice and preserved at −20□. The content of noradrenaline (NA), dopamine (DA) and 5-hydroxytryptamine (5-HT) in the whole brain homogenate without cerebellum was measured respectively by means of the fluorophotometry^[2].
as §2, §3, §4
(3) Measurement: The fluorophotometry was conducted on NA, DA and 5-HT (KUANG Peigen, ZHOU Xinfu and XU Bo, Extraction of Monoamine Neurotransmitters in Brain Tissue and Measurement of the Neurotransmitters by Means of Fluorophotometry, Academic Journal of PLA Postgraduate Medical School, 1982, 3(2) 181-185).

5-HTP model mice = assay: Shaking-head behavior induced by 5-hydroxytryptophane (5-HTP) after pargyline; details: 14 mg/kg body weight; P<0.01
From the text: (IV) Effects of Capsules of the Present Invention on Shaking-Head Behavior Induced by 5-hydroxytryptophane (5-HTP) 1. Principle: according to the monoamine hypothesis on the occurrence of depression, the function of antidepressant lies in that it can enhance the functions of the noradrenergic and/or serotonergic nerve. A great variety of antidepressant may enhance the effect of 5-HT by blocking the reuptake of 5-HT. 5-HTP may be used as a precursor of 5-HT, and monoamine oxidase inhibitor—pargyline hydrochloride may inhibit the enzymatic degradation thereof. The characteristic symptom—shaking-head behavior is obvious on mice. The enhancement of shaking-head behavior of mice after administration of the test drug may be used as an evidence to the fact that the inhibition of 5-HT uptaking function is the anti-depression mechanism. 2. Method: ICR male mice (20±1 g) were stochastically divided into seven groups according to the body weight, and each group comprises 12 animals. The animals in the groups of administration with a drug were consecutively administered by gavage for 21 days. […] Except the normal control group, other groups were administered with 20 mg/kg body weight of 5-HTP by intraperitoneal injection 90 min after injection of pargyline; and the times of shaking-head behavior were recorded in the following 10 minutes.

[8] = 0.014 g/kg body weight, 22 days, reserpine 2 mg/kg ip
[9] = 0.01 g/kg body weight, 5 animals
[10] = 0.01 g/kg body weight per Table 10
[11] = 0.050 g/kg body weight, 22 days, reserpine 2 mg/kg ip
[12] = 0.050 g/kg body weight, 8 animals
[13] = 0.05 g/kg body weight per Table 10

For `CC(=O)Oc1ccccc1C(=O)O` [Aspirin], the “Pain threshold, 1 h after admi.” value (normal mice [1]) was 18.27 ± 12.52 S, the “Pain threshold, 3 h after admi.” value (normal mice [1]) was 15.27 ± 2.57 S and the “Pain threshold, 5 h after admi.” value (normal mice [1]) was 16.09 ± 4.70 S. The Stretching times (mice given acetic acid) was 12.00 ± 9.20, the “Number of animals falling asleep, Falling asleep” value [2] was 5 and the “Number of animals falling asleep, Not falling asleep” value [2] was 6.

With `CNCCC(Oc1ccc(C(F)(F)F)cc1)c1ccccc1` (centres unmarked) [Fluose fine hydrochloride, Fluoxetine Hydrochloride] the “Number of animals which close the eyelids at 1 h after the administration, ± (semi-open eyelids)” value ([3]; 0.014 g/kg body weight) was 8, the “Number of animals which close the eyelids at 1 h after the administration, − (open eyelids)” value ([3]; 0.014 g/kg body weight) was 7 and the “Number of animals which close the eyelids at 1 h after the administration, □ (close eyelids)” value ([3]; 0.014 g/kg body weight) was 0. For the same compound, the “Number of animals which close the eyelids at 2 h after the administration, ± (semi-open eyelids)” value ([3]; 0.014 g/kg body weight) was 6, the “Number of animals which close the eyelids at 2 h after the administration, − (open eyelids)” value ([3]; 0.014 g/kg body weight) was 5 and the “Number of animals which close the eyelids at 2 h after the administration, □ (close eyelids)” value ([3]; 0.014 g/kg body weight) was 4. The “Number of animals which close the eyelids at 6 h after the administration, ± (semi-open eyelids)” value ([3]; 0.014 g/kg body weight) was 11, the “Number of animals which close the eyelids at 6 h after the administration, − (open eyelids)” value ([3]; 0.014 g/kg body weight) was 2 and the “Number of animals which close the eyelids at 6 h after the administration, □ (close eyelids)” value ([3]; 0.014 g/kg body weight) was 2. The “effect on reserpine-induced ptosis (in words)” value ([3]; 14 mg/kg body weight) was “antagonistic against reserpine-induced ptosis”, the “Number of animals that have excircle behaviors at 2 h, Excircle (+)” value ([4]; 0.014 g/kg body weight) was 15 and the “Number of animals that have excircle behaviors at 2 h, Within circle (□)” value ([4]; 0.014 g/kg body weight) was 0. For the same compound, the “Number of animals that have excircle behaviors at 4 h, Excircle (+)” value ([4]; 0.014 g/kg body weight) was 15, the “Number of animals that have excircle behaviors at 4 h, Within circle (□)” value ([4]; 0.014 g/kg body weight) was 0 and the “Number of animals that have excircle behaviors at 6 h, Excircle (+)” value ([4]; 0.014 g/kg body weight) was 14. The “Number of animals that have excircle behaviors at 6 h, Within circle (□)” value ([4]; 0.014 g/kg body weight) was 1, the “effect on “excircle” rate of reserpine mice (in words)” value ([4]; 14 mg/kg body weight) was “notably increase the “excircle” rate” and the “Body temperature difference, 6 h after making models” value [5, 8] was 2.66 ± 1.11 □. The “Body temperature difference, 24 h after making models” value [5, 8] was 2.27 ± 1.00 □, the “Body temperature, 6 h after making models” value [5, 8] was 35.0 ± 0.87 □ and the “effect on fall in body temperature caused by reserpine (in words)” value ([5]; 14 mg/kg body weight) was “notably antagonize the fall in body temperature”. For the same compound, the “5-HT in the brain tissue of reserpine mice” value [6, 9] was 707.25 ± 115.94 ng/g, the “DA in the brain tissue of reserpine mice” value [6, 9] was 1967.20 ± 562.57 ng/g and the “NA in the brain tissue of reserpine mice” value [6, 9] was 1326.48 ± 670.50 ng/g. The “5-HT in the brain tissue of normal mice” value (normal mice [7]; 0.01 g/kg body weight) was 841.85 ng/g, the “DA in the brain tissue of normal mice” value (normal mice [7]; 0.01 g/kg body weight) was 1432.52 ± 395.77 ng/g and the “NA in the brain tissue of normal mice” value (normal mice [7]; 0.01 g/kg body weight) was 896.46 ng/g. The “effect on 5-HT in brain tissue of normal mice (in words)” value (normal mice [7]; [10]) was “notably increase the level of 5-HT”, the “effect on NA and DA in brain tissue of normal mice (in words)” value (normal mice [7]; [10]) was “increase the level of NA and DA” and the “effect on 5-HTP-induced shaking-head behavior (in words)” value (5-HTP model mice) was “notably increase the times of 5-HTP-induced shaking-head behavior”.

In the case of `CN(C)CCC=C1c2ccccc2CCc2ccccc21` [amitriptyline, Amitriptyline Hydrochloride], the “Number of animals which close the eyelids at 1 h after the administration, ± (semi-open eyelids)” value ([3]; 0.050 g/kg body weight) is reported as 10, the “Number of animals which close the eyelids at 1 h after the administration, − (open eyelids)” value ([3]; 0.050 g/kg body weight) is reported as 4 and the “Number of animals which close the eyelids at 1 h after the administration, □ (close eyelids)” value ([3]; 0.050 g/kg body weight) is reported as 1. The “Number of animals which close the eyelids at 2 h after the administration, ± (semi-open eyelids)” value ([3]; 0.050 g/kg body weight) was 11, the “Number of animals which close the eyelids at 2 h after the administration, − (open eyelids)” value ([3]; 0.050 g/kg body weight) was 2 and the “Number of animals which close the eyelids at 2 h after the administration, □ (close eyelids)” value ([3]; 0.050 g/kg body weight) was 2. For the same compound, the “Number of animals which close the eyelids at 6 h after the administration, ± (semi-open eyelids)” value ([3]; 0.050 g/kg body weight) was 12, the “Number of animals which close the eyelids at 6 h after the administration, − (open eyelids)” value ([3]; 0.050 g/kg body weight) was 0 and the “Number of animals which close the eyelids at 6 h after the administration, □ (close eyelids)” value ([3]; 0.050 g/kg body weight) was 3. The “effect on reserpine-induced ptosis (in words)” value ([3]; 50 mg/kg body weight) was “antagonistic against reserpine-induced ptosis”, the “Number of animals that have excircle behaviors at 2 h, Excircle (+)” value ([4]; 0.050 g/kg body weight) was 15 and the “Number of animals that have excircle behaviors at 2 h, Within circle (□)” value ([4]; 0.050 g/kg body weight) was 0. The “Number of animals that have excircle behaviors at 4 h, Excircle (+)” value ([4]; 0.050 g/kg body weight) was 13, the “Number of animals that have excircle behaviors at 4 h, Within circle (□)” value ([4]; 0.050 g/kg body weight) was 2 and the “Number of animals that have excircle behaviors at 6 h, Excircle (+)” value ([4]; 0.050 g/kg body weight) was 13. The “Number of animals that have excircle behaviors at 6 h, Within circle (□)” value ([4]; 0.050 g/kg body weight) was 2, the “effect on “excircle” rate of reserpine mice (in words)” value ([4]; 50 mg/kg body weight) was “notably increase the “excircle” rate” and the “Body temperature difference, 6 h after making models” value [5, 11] was 2.38 ± 1.30 □. The “Body temperature, 6 h after making models” value [5, 11] was 34.36 ± 1.12 □, the “effect on fall in body temperature caused by reserpine (in words)” value ([5]; 50 mg/kg body weight) was “notably antagonize the fall in body temperature” and the “effect on NA and DA in brain tissue of reserpine mice (in words)” value ([6]; 50 mg/kg body weight) was “notably enhance the level of NA and DA”. The “5-HT in the brain tissue of reserpine mice” value [6, 12] was 557.57 ± 174.75 ng/g, the “DA in the brain tissue of reserpine mice” value [6, 12] was 1806.61 ± 275.37 ng/g and the “NA in the brain tissue of reserpine mice” value [6, 12] was 1023.46 ± 619.56 ng/g. The “5-HT in the brain tissue of normal mice” value (normal mice [7]; 0.05 g/kg body weight) was 1015.17 ng/g, the “DA in the brain tissue of normal mice” value (normal mice [7]; 0.05 g/kg body weight) was 1519.29 ± 373.72 ng/g and the “NA in the brain tissue of normal mice” value (normal mice [7]; 0.05 g/kg body weight) was 803.54 ng/g. For the same compound, the “effect on 5-HT in brain tissue of normal mice (in words)” value (normal mice [7]; [13]) was “notably increase the level of 5-HT” and the “effect on NA and DA in brain tissue of normal mice (in words)” value (normal mice [7]; [13]) was “increase the level of NA and DA”.
